Source: patent US20200131476A1, “Differentiation Of Immunocytes Using Pluripotent Stem Cells” (Korea Center For Disease Control And Prevention, priority 2017, published 2020)

Test system: pluripotent stem cells
Experiment: Differentiation of pluripotent stem cells into CD34+CD45+ hematopoietic stem cells (FACS)
Type: cell-based
Excerpt: 1) Pluripotent stem cells were adapted to a matrigel-coated dish and a mTeSR1 medium for 3 weeks, and then other colonies except for 5 colonies in 35 pi dish were removed by pipetting. This is a process for providing space for the proliferation of differentiated cells in the future. At this time, when vitronectin is used as a coating material or mTeSR8 is used as a medium, the differentiation of hematopoietic stem cells or macrophages can be induced.
2) The medium for culturing the stem cells used in 1) above was replaced with APEL medium. […] The differentiation into mesodermal cells was induced rapidly by treating with BMP4 at a high concentration (100 ng/ml) for 2 days and then sequentially at a low concentration (20 ng/ml) for 2 days.
In addition, the efficiency of differentiation of hematopoietic stem cells can be increased by treating with the CDDO methyl ester compound together with BMP4 for 4 days. […]
CD34+ and CD45+ are markers specifically expressed in hematopoietic stem cells. […] In order to confirm this, the amount of expression of the markers specifically expressed in hematopoietic stem cells was measured.
The differentiated cells were monolayered and reacted with the antibodies CD34 and CD45 labeled with fluorescence. […]

SMILES: COC(=O)[C@]12CCC(C)(C)C[C@H]1[C@H]1C(=O)C=C3[C@@]4(C)C=C(C#N)C(=O)C(C)(C)[C@@H]4CC[C@@]3(C)[C@]1(C)CC2 [CDDO methyl ester, 2-cyano-3,12-dioxooleana-1,9(11)-dien-28-oic acid methyl ester]
- efficiency of differentiation of hematopoietic stem cells, increase (50 nM added together with BMP4 for 4 days, versus no CDDO methyl ester, FIG. 4): about 3 times
- yield of hematopoietic stem cells (further treating with the compound in the BMP4 treatment step): improved by three times or more
